Where two headings read alike, the source gives them in different places.
Tests used:
[1] = test system: MCF-7 cells stably expressing UbC HA-ER-α Y537N; test: cells; type: cell-based; set-up: Percent inhibition compared to vehicle: concentration or dose not given beside the values; conditions: for EC50: Homo sapiens; for Percent inhibition compared to vehicle: 5-Day Incubation; for Efficacy (Emax): Day 5 relative to Day 0
Method in brief: (§1)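 Stable HA-ER-α MCF-7 lines are treated with compound for 5 days in phenol-free, charcoal-stripped medium. Viability is measured by CellTiter-Glo and expressed relative to the time-zero plate.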

[2] = test system: MCF-7 cells stably expressing UbC HA-ER-α L536P; test: cells; type: cell-based; set-up: Percent inhibition compared to vehicle: concentration or dose not given beside the values; conditions: for EC50: Homo sapiens
Method in brief: as §1

[3] = test system: MCF-7 cells stably expressing EF1 HA-ER-α L536R; test: cells; type: cell-based; set-up: Percent inhibition compared to vehicle: concentration or dose not given beside the values; conditions: for Percent inhibition compared to vehicle: 5-Day Incubation; for Efficacy (Emax): Day 5 relative to Day 0; for EC50: Homo sapiens
Method in brief: (§2)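 MCF-7 lines stably expressing N-terminal HA-tagged ESR1 (wild-type or mutant) from EF1 (puromycin-selected) or UbC (hygromycin-selected) lentiviral vectors, or empty vector, were seeded in phenol-free RPMI with 10% CSS.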

[4] = test system: MCF-7 cells stably expressing EF1 HA-ER-α L536P; test: cells; type: cell-based; set-up: Percent inhibition compared to vehicle: concentration or dose not given beside the values; conditions: for Percent inhibition compared to vehicle: 5-Day Incubation; for Efficacy (Emax): Day 5 relative to Day 0; for EC50: Homo sapiens
Method in brief: as §2

[5] = test system: MCF-7 cells stably expressing ER-α mutants; conditions: 5 day proliferation assays; depending on the mutation and assay format
Protocol: Potency and efficacy of ERM 1-3 were measured in vitro in ER dependent transcriptional reporter assays and viability assays of MCF-7 cells stably expressing ER-α mutants.
MCF-7 Mutant ER-α Stable Cell Line Generation: MCF-7 cells stably expressing wild-type or ER-α mutants were generated by subcloning ESR1 wild-type and mutant cDNAs containing an amino terminal hemagglutinin tag into pCDH-EF1-MCS-(PGK-Puro) (referred to as EF1 HA-ER-α) and pCDH-UbC-MCS-EF1-Hygro (referred to as UbC HA-ER-α) (System Biosciences). The resulting plasmids, in addition to an empty vector negative control, were subsequently cotransfected into HEK293T cells with the pPACKH1 packaging plasmid mix (System Biosciences) according to the manufacturer's protocol. Four days post transfection lentiviral particles were purified from the cell medium, tiered and stored at −80° C. MCF-7 cells were transduced with the purified viral particles and stable cell lines were selected by growth in RPMI containing 10% FBS plus 1 μG/mL puromycin or 200 μG/mL hygromycin for pCDH-EF1-MCS-(PGK-Puro) and pCDH-UbC-MCS-EF1-Hygro, respectively.
MCF-7 Stable Cell Line Viability: MCF-7 cells were enumerated with a hemacytometer adjusted to a concentration of 40,000 cells per mL in Phenol Free RPMI containing 10% CSS with NEAA and Sodium Pyruvate. 16 microliters of the cell suspension was added to each well of a 384 well tissue culture treated white clear bottom polystyrene plate (Corning) using a Matrix 16 channel electronic pipette. The cells were incubated overnight to allow the cells to adhere. […] The “average” of the relative luminescence units (RLUs) of the wells are considered to be the baseline value at time=zero. […] The relative luminescence units (RLUs) of each well were measured, and relative proliferation (fold) of each sample was determined as follows: (RLU sample−RLU background)/(RLU at T=0)=relative proliferation
Potency and efficacy of ERM 4-23 were measured in vitro in ER dependent transcriptional reporter assays and viability assays of MCF-7 cells stably expressing ER-α mutants.

wild-type ER-α = target: T1, wild-type ER-α (Homo sapiens, UniProt P03372)
T1 sequence (P03372 1-595): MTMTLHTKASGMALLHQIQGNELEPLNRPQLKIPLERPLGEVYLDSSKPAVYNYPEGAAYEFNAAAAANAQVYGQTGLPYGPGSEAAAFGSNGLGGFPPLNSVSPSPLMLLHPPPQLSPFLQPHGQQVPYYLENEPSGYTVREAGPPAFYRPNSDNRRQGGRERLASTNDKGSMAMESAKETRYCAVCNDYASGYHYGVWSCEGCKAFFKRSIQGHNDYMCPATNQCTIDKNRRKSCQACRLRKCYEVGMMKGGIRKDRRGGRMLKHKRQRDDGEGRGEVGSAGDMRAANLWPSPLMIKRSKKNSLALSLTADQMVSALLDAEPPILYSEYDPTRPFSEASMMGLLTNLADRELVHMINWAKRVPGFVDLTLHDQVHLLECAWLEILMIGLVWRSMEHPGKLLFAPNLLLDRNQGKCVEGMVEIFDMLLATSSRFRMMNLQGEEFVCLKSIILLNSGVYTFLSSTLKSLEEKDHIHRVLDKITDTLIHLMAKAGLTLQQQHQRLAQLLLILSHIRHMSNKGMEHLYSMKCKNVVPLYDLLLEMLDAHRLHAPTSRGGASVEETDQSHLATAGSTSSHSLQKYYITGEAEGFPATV

[6] = UbC HA-ER-α Y537N, Agonist Mode, −E2
[7] = UbC HA-ER-α Y537N, Antagonist Mode, +E2
[8] = Agonist Mode, −E2, 5-Day Incubation
[9] = Agonist Mode, −E2, Day 5 relative to Day 0
[10] = Antagonist Mode, +E2, 5-Day Incubation
[11] = Antagonist Mode, +E2, Day 5 relative to Day 0
[12] = MCF7, read-out: Potency (EC50; nM), Antagonist Mode, +E2
[13] = EF1 HA-ER-α L536R, Agonist Mode, −E2
[14] = EF1 HA-ER-α L536R, Antagonist Mode, +E2
[15] = EF1 HA-ER-α L536P, Agonist Mode, −E2
[16] = EF1 HA-ER-α L536P, Antagonist Mode, +E2

Compound: CC/C(=C(/c1ccc(/C=C/C(=O)O)cc1)c1ccc2[nH]ncc2c1)c1ccc(F)cc1Cl [Compound 1-3, (E)-3-(4-((E)-2-(2-chloro-4-fluorophenyl)-1-(1H-indazol-5-yl)but-1-en-1-yl)phenyl)acrylic acid]
- EC50 ([1]; MCF7, UbC HA-ER-α Y537N, Agonist Mode, −E2, read-out: Potency (EC50; nM)): 2.22 ± 0.55 nM
- EC50 ([1]; MCF7, UbC HA-ER-α Y537N, Antagonist Mode, +E2, read-out: Potency (EC50; nM)): 9.5 ± 3.61 nM
- Percent inhibition compared to vehicle [1, 6]: 61%
- Efficacy (Emax) [1, 6]: 1.67 ± 0.15
- Percent inhibition compared to vehicle [1, 7]: 76%
- Efficacy (Emax) [1, 7]: 1.56 ± 0.04
- Percent inhibition compared to vehicle [2, 8]: 50%
- Efficacy (Emax) [2, 9]: 1.58 ± 0.16
- Percent inhibition compared to vehicle [2, 10]: 72%
- Efficacy (Emax) [2, 11]: 1.69 ± 0.10
- EC50 ([2]; MCF7, Agonist Mode, −E2, read-out: Potency (EC50; nM)): 0.713 ± 0.487 nM
- EC50 [2, 12]: 7.37 ± 3.93 nM
- Percent inhibition compared to vehicle [3, 13]: 47%
- Efficacy (Emax) [3, 13]: 3.61 ± 0.24
- Percent inhibition compared to vehicle [3, 14]: 45%
- Efficacy (Emax) [3, 14]: 3.77 ± 0.48
- EC50 ([3]; MCF7, EF1 HA-ER-α L536R, Agonist Mode, −E2, read-out: Potency (EC50; nM)): 10.4 ± 6.52 nM
- EC50 ([3]; MCF7, EF1 HA-ER-α L536R, Antagonist Mode, +E2, read-out: Potency (EC50; nM)): 15.6 ± 6.9 nM
- Percent inhibition compared to vehicle [4, 15]: 57%
- Efficacy (Emax) [4, 15]: 3.54 ± 0.45
- Percent inhibition compared to vehicle [4, 16]: 59%
- Efficacy (Emax) [4, 16]: 3.74 ± 0.53
- EC50 ([4]; MCF7, EF1 HA-ER-α L536P, Agonist Mode, −E2, read-out: Potency (EC50; nM)): 18.2 ± 3.29 nM
- EC50 ([4]; MCF7, EF1 HA-ER-α L536P, Antagonist Mode, +E2, read-out: Potency (EC50; nM)): 41.9 ± 8.25 nM
- reduced the number of viable cells (compared to DMSO control) [5]: 44%-78%

Compound: CC1=C(c2cccc(O)c2)[C@H](c2ccc(OCCN3CC(CF)C3)cc2)Oc2ccc(O)cc21 [Compound 4-23, (S)-2-(4-(2-(3-(fluoromethyl)azetidin-1-yl)ethoxy)phenyl)-3-(3-hydroxyphenyl)-4-methyl-2H-chromen-6-ol]
- EC50 ([1]; MCF7, read-out: Potency (EC50; nM), UbC HA-ER-α Y537N, Agonist Mode, −E2): 0.446 ± 0.219 nM
- EC50 ([1]; MCF7, read-out: Potency (EC50; nM), UbC HA-ER-α Y537N, Antagonist Mode, +E2): 2.64 ± 1.86 nM
- Percent inhibition compared to vehicle [1, 6]: 62%
- Efficacy (Emax) [1, 6]: 1.63 ± 0.17
- Percent inhibition compared to vehicle [1, 7]: 74%
- Efficacy (Emax) [1, 7]: 1.70 ± 0.03
- Percent inhibition compared to vehicle [2, 8]: 49%
- Efficacy (Emax) [2, 9]: 1.62 ± 0.13
- Percent inhibition compared to vehicle [2, 10]: 69%
- Efficacy (Emax) [2, 11]: 1.87 ± 0.27
- EC50 ([2]; MCF7, read-out: Potency (EC50; nM), Agonist Mode, −E2): 0.231 ± 0.104 nM
- EC50 [2, 12]: 2.09 ± 0.425 nM
- Percent inhibition compared to vehicle [3, 13]: 57%
- Efficacy (Emax) [3, 13]: 2.94 ± 0.34
- Percent inhibition compared to vehicle [3, 14]: 60%
- Efficacy (Emax) [3, 14]: 2.76 ± 0.50
- EC50 ([3]; MCF7, read-out: Potency (EC50; nM), EF1 HA-ER-α L536R, Antagonist Mode, +E2): 53.3 ± 65.8 nM
- EC50 ([3]; MCF7, read-out: Potency (EC50; nM), EF1 HA-ER-α L536R, Antagonist Mode, −E2 (Table 27)): 11.3 ± 9.22 nM
- Percent inhibition compared to vehicle [4, 15]: 62%
- Efficacy (Emax) [4, 15]: 3.11 ± 0.40
- Percent inhibition compared to vehicle [4, 16]: 64%
- Efficacy (Emax) [4, 16]: 3.25 ± 0.07
- EC50 ([4]; MCF7, read-out: Potency (EC50; nM), EF1 HA-ER-α L536P, Antagonist Mode, +E2): 15.1 ± 13.6 nM
- EC50 ([4]; MCF7, read-out: Potency (EC50; nM), EF1 HA-ER-α L536P, Antagonist Mode, −E2 (Table 27)): 4.78 ± 4.67 nM
- reduced the number of viable cells (compared to DMSO control) [5]: 49%-90%
- Percent inhibition compared to vehicle (wild-type ER-α; Agonist Mode, −E2): 86%
- Efficacy (Emax) (wild-type ER-α; Agonist Mode, −E2, relative to vehicle treated wild-type ER-α): 0.14 ± 0.10
- Percent inhibition compared to vehicle (wild-type ER-α; Antagonist Mode, +E2): 96%
- Efficacy (Emax) (wild-type ER-α; Antagonist Mode, +E2, relative to vehicle treated wild-type ER-α): 0.08 ± 0.07
